Reference: US20030225230A1, “Polymers for antifouling coatings and a process for the preparation thereof” (Jotun A/S, priority 1995, published 2003)

Legend:
[1] = Determination of the hydrolysis rate of monomers in alkaline environment (pH 12); type: physicochemical; details: monomer in aqueous solution, starting pH 12, 25 °C

## C=C(C)C(=O)Sc1nc(-c2ccccc2)ns1 [3-Phenyl-5-methacryloylthio-1,2,4-thiadiazole]
[1]
  Hydrolysis Rate after 24 h: 12.6%
other
  melting point: 110 °C

## Ethyloxythioglycolic acid methacrylate
[1]
  Hydrolysis Rate after 24 h: 80.2%

## 4-Methacryloyloxymethylbenzoate
[1]
  Hydrolysis Rate after 24 h: 54.8%

## C=C(C)C(=O)Sc1ccc(Cl)cc1 [4-Chlorothlophenylmethacrylate]
[1]
  Hydrolysis Rate after 24 h: 78.0%

## C=C(C)C(=O)Oc1ccc(NC(C)=O)cc1 [4-Methacryloyloxy acetanilide]
[1]
  Hydrolysis Rate after 24 h: 32.9%

## 2-Methacryloyloxymethylbenzoate
[1]
  Hydrolysis Rate (4.5 h): 64.4%

## C=C(C)C(=O)Oc1c(Br)cc(Br)cc1Br [2,4,6-Tribromophenylmethacrylate]
[1]
  Hydrolysis Rate after 24 h: 13.3%
other
  melting point: 140 °C

## C=C(C)C(=O)OCC(=O)O [Methacryloytoxy acetic acid]
[1]
  Hydrolysis Rate after 24 h: 70.1%

## C=C(C)C(=O)OCC(=O)OC [Methoxycarbonylmethylmethacrylate]
[1]
  Hydrolysis Rate (4.5 h): 63.1%
other
  melting point: 60 °C

## C=C(C)C(=O)Oc1ccc(Br)cc1C=O [5-Bromo-2-methacryloyloxybenzaldehyde]
[1]
  Hydrolysis Rate after 24 h: 35.6%
other
  melting point: 52 °C

## C=C(C)C(=O)Oc1ccc(OC)cc1 [4-Methoxyphenylmethacrylate]
[1]
  Hydrolysis Rate after 24 h: 43.2%
other
  melting point: 40 °C

## C=C(C)C(=O)OCC(=O)OC(C)(C)C [t-Butoxycarbonylmethylmethacrylate]
[1]
  Hydrolysis Rate after 24 h: 77.6%
other
  melting point: 65 °C
